Measured values: patent US12240844B2 (Voronoi, Inc., priority 2019, dated 2025)

Columns and labels:
[1] = system: MDA-MB-231 cell line; assay: MDA-MB-231 cancer cell proliferation inhibition (Cell Titer-Glo); assay type: cell-based; conditions: Homo sapiens, MDA-MB-231 triple-negative breast cancer cell line, 72 hours
Outline: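 GI50 comes from CellTiter-Glo luminescence, read 10 min after reagent addition at RT, following 72 h compound treatment. Eleven concentrations were used (⅓ steps, highest 10 μM final) on 2000 cells/well. MDA-MB-231 and MDA-MB-468 were grown in DMEM, SHP-77 in RPMI.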

[2] = system: TNF-α; assay: TNF-α secretion inhibition in LPS-treated THP-1 cells (ELISA); assay type: cell-based; conditions: Homo sapiens, compound 0.5 μM, LPS 500 ng/ml, 24 hours, read-out: THP-1/TNF-a (% inhib)
Method: In order to evaluate the cytokine secretion inhibitory efficacy of mononuclear cells, THP-1 cells (ATCC, #TIB-202) as a human-derived monocyte cell line were cultured in RPMI-1640 (Hyclone, SH30027.01) media in which 10% fetal bovine serum (Hyclone, SH30084.03), 1% penicillin streptomycin (Welgene, LS202-02) and 50 μM 2-Mercaptoethanol (Gibco, #21985023) were contained. In the test, 1.5-2×10^5 cells/250 μl per each well were dispensed in a 48-well plate (SPL, #30048) and incubated in an incubator at 37° C. and 5% CO2 for 16 hours, and then the compounds were diluted in DMSO so that the final concentration was 0.5 μM. It was treated with Lipopolysaccharides (LPS) (sigma, #L6529) […]. After treatment with the compound, the LPS was treated so that the final concentration was 500 ng/ml, and then the cell culture fluid was collected after culturing for 24 hours, and the degrees of the cytokines IL-6 (R&D system, #D6050) and TNF-α (R&D system, #DTA00D) contained in the culture fluid were collected using each ELISA kit. After performing the experiment according to the manufacturer's instructions, the absorbance at 450 nm was measured and analyzed using a microplate reader.

[3] = biological target: T1, TTK (Homo sapiens, UniProt P33981); assay: TTK enzyme inhibition, ADP-Glo kinase assay; assay type: biochemical; design: purchased Signalchem T20-10G; conditions: ATP 5 μM
T1 sequence (P33981 1-857): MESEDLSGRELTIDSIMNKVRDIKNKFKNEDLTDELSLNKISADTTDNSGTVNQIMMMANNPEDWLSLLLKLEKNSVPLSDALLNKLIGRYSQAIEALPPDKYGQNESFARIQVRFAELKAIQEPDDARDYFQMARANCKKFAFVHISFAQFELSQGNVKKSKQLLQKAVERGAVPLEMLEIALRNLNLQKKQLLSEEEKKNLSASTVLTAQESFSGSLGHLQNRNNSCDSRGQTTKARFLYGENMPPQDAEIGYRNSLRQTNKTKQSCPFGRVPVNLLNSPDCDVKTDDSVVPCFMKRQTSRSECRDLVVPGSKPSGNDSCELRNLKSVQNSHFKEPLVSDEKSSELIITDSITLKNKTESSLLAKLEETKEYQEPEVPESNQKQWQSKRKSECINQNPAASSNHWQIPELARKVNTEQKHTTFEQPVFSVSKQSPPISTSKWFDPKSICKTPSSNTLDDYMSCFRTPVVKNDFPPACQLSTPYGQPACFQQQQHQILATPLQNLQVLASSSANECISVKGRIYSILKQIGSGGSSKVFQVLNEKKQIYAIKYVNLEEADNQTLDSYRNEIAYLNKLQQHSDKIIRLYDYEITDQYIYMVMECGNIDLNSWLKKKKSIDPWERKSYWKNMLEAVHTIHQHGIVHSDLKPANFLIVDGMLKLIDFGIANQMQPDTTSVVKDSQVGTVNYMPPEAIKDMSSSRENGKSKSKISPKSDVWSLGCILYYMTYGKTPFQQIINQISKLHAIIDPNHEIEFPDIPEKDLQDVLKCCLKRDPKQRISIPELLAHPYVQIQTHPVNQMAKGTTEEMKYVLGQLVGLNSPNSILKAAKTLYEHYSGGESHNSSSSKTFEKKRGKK
Outline: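 Recombinant human TTK (7.5 ng) reacted with 5 μM ATP and MBP substrate (0.2 μg) for 4 h at 25° C in Tris-HCl pH 7.4, MgCl2, BSA, DTT buffer, compound at 0.000017–1 μM. ADP formation by ADP-Glo luminescence; IC50 (nM) relative to solvent control.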

Row | Structure (SMILES) | GI50 [1] [nM] | inhibition at 0.5 µM [2] [%] | IC50 [3] [nM]
1 | CCNc1cc(Nc2ccc(C(=O)N3CCC(N4CCOCC4)CC3)c3c2OCO3)nc2[nH]cc(C(F)(F)F)c12 [Example 37, (7-((4-(ethylamino)-3-(trifluoromethyl)-1H-pyrrolo[2,3-b]pyridin-6-yl)amino)benzo[d][1,3]dioxol-4-yl)(4-morpholinopiperidin-1-yl)methanone] | 301 to 1000 | 100 | –
2 | CCNc1cc(Nc2ccc(P3(=O)CCN(C(C)=O)CC3)cc2OC)nc2[nH]cc(C(F)(F)F)c12 [Example 42, 1-(4-(4-((4-(ethylamino)-3-(trifluoromethyl)-1H-pyrrolo[2,3-b]pyridin-6-yl)amino)-3-methoxyphenyl)-4-oxido-1,4-azaphosphinan-1-yl)ethan-1-one] | 301 to 1000 | 35.7 | < 100
3 | CCNc1cc(Nc2ccc(C(=O)N3C[C@@H]4C[C@H]3CO4)c3c2OCCO3)nc2[nH]cc(C(F)(F)F)c12 [Example 44, ((1S,4S)-2-oxa-5-azabicyclo[2.2.1]heptan-5-yl)(8-((4-(ethylamino)-3-(trifluoromethyl)-1H-pyrrolo[2,3-b]pyridin-6-yl)amino)-2,3-dihydrobenzo[b] [1,4]dioxin-5-yl)methanone] | 301 to 1000 | 100 | < 100
4 | CCNc1cc(Nc2ccc(C(=O)N3CCC(N4CCOCC4)CC3)c3c2OCC3)nc2[nH]cc(C(F)(F)F)c12 [Example 90, (7-((4-(ethylamino)-3-(trifluoromethyl)-1H-pyrrolo[2,3-b]pyridin-6-yl)amino)-2,3-dihydrobenzofuran-4-yl)(4-morpholinopiperidin-1-yl)methanone] | 301 to 1000 | 12.4 | < 100
5 | O=C(c1ccc(Nc2cc(C3CC3)c3c(C(F)(F)F)c[nH]c3n2)c2c1CCO2)N1CCOCC1 [Example 91, (7-((4-cyclopropyl-3-(trifluoromethyl)-1H-pyrrolo[2,3-b]pyridin-6-yl)amino)-2,3-dihydrobenzofuran-4-yl)(morpholino) methanone] | 301 to 1000 | 9.6 | 301 to 1000
6 | CCNc1cc(Nc2ccc(P3(=O)CCN(C4CCOCC4)CC3)cc2OC)nc2[nH]cc(C(F)(F)F)c12 [Example 94, 4-(4-((4-(ethylamino)-3-(trifluoromethyl)-1H-pyrrolo[2,3-b]pyridin-6-yl)amino)-3-methoxyphenyl)-1-(tetrahydro-2H-pyran-4-yl)-1,4-azaphosphinane 4-oxide] | 301 to 1000 | 6.6 | –
7 | COCCNc1cc(Nc2ccc(S(=O)(=O)N3CCC(N4CCOCC4)CC3)c3c2OCCO3)nc2[nH]cc(C(F)(F)F)c12 [Example 97, N^4-(2-methoxyethyl)-N^6-(8-((4-morpholonopiperidin-1-yl)sulfonyl)-2,3-dihydrobenzo[b] [1,4]dioxin-5-yl)-3-(trifluoromethyl)-1H-pyrrolo[2,3-b]pyridine-4,6-diamine] | 301 to 1000 | 5.5 | 101 to 300
8 | CCNc1cc(Nc2ccc(C(=O)N3CCC(N4C[C@@H]5C[C@H]4CO5)CC3)c3c2OCC3)nc2[nH]cc(C(F)(F)F)c12 [Example 105, (4-((1S,4S)-2-oxa-5-azabicyclo[2.2.1]heptan-5-yl)piperidin-1-yl)(7-((4-(ethylamino)-3-(trifluoromethyl)-1H-pyrrolo[2,3-b]pyridin-6-yl)amino)-2,3-dihydrobenzofuran-4-yl)methanone] | 301 to 1000 | 1.7 | < 100
9 | CCNc1cc(Nc2ccc(C(=O)N3CCN(C4COC4)CC3)c3c2OCCO3)nc2[nH]cc(C(F)(F)F)c12 [Example 173, (8-((4-(ethylamino)-3-(trifluoromethyl)-1H-pyrrolo[2,3-b]pyridin-6-yl)amino)-2,3-dihydrobenzo[b] [1,4]dioxin-5-yl)(4-(oxetan-3-yl)piperazin-1-yl)methanone] | 301 to 1000 | 5.9 | < 100
10 | COc1cc(S(=O)(=O)N2CCC(N3CCOCC3)CC2)ccc1Nc1cc(NCCS(C)(=O)=O)c2c(C(F)(F)F)c[nH]c2n1 [Example 194, N^6-(2-methoxy-4-((4-morpholinopiperidin-1-yl)sulfonyl)phenyl)-N^4-(2-(methylsulfonyl)ethyl)-3-(trifluoromethyl)-1H-pyrrolo[2,3-b]pyridine-4,6-diamine] | 301 to 1000 | 37.6 | –
11 | COCCNc1cc(Nc2ccc(P3(=O)CCN(C4CC4)CC3)cc2OC)nc2[nH]cc(C(F)(F)F)c12 [Example 207, 1-cyclopropyl-4-(3-methoxy-4-((4-((2-methoxyethyl)amino)-3-(trifluoromethyl)-1H-pyrrolo[2,3-b]pyridin-6-yl)amino)phenyl)-1,4-azaphosphinane 4-oxide] | 301 to 1000 | 39.8 | < 100
12 | CNc1cc(Nc2ccc(C(=O)N3CC[C@@H](N4CCOCC4)C3)c3c2OCC3)nc2[nH]cc(C(F)(F)F)c12 [Example 214, (R)-(7-((4-(methylamino)-3-(trifluoromethyl)-1H-pyrrolo[2,3-b]pyridin-6-yl)amino)-2,3-dihydrobenzofuran-4-yl)(3-morpholinopyrrolidin-1-yl)methanone] | 301 to 1000 | 12 | 101 to 300
13 | CNc1cc(Nc2ccc(S(=O)(=O)N3CCC(N4CCOCC4)CC3)c3c2OCCO3)nc2[nH]cc(C(F)(F)F)c12 [Example 233, N^4-methyl-N^6-(8-((4-morpholinopiperidin-1-yl)sulfonyl)-2,3-dihydrobenzo [b] [1,4]dioxin-5-yl)-3-(trifluoromethyl)-1H-pyrrolo[2,3-b]pyridine-4,6-diamine] | 301 to 1000 | 12.5 | 101 to 300
14 | O=C(c1ccc(Nc2cc(C3CC3)c3c(C(F)(F)F)c[nH]c3n2)c2c1CCO2)N1CC[C@@H](N2CCOCC2)C1 [Example 238, (R)-(7-((4-cyclopropyl-3-(trifluoromethyl)-1H-pyrrolo[2,3-b]pyridin-6-yl)amino)-2,3-dihydrobenzofuran-4-yl)(3-morpholinopyrrolidin-1-yl)methanone] | 301 to 1000 | – | < 100
15 | CNc1cc(Nc2ccc(C(=O)N3CCC(N4C[C@@H]5C[C@H]4CO5)CC3)c3c2OCC3)nc2[nH]cc(C(F)(F)F)c12 [Example 241, (4-((1S,4S)-2-oxa-5-azabicyclo[2.2.1]heptan-5-yl)piperidin-1-yl)(7-((4-(methylamino)-3-(trifluoromethyl)-1H-pyrrolo[2,3-b]pyridin-6-yl)amino)-2,3-dihydrobenzofuran-4-yl)methanone] | 301 to 1000 | – | < 100
16 | CNc1cc(Nc2ccc(S(=O)(=O)N3CCC(N4C[C@H]5C[C@@H]4CO5)CC3)cc2OC)nc2[nH]cc(C(F)(F)F)c12 [Example 243, N^6-(4-((4-((1R,4R)-2-oxa-5-azabicyclo[2.2.1]heptan-5-yl)piperidin-1-yl)sulfonyl)-2-methoxyphenyl)-N^4-methyl-3-(trifluoromethyl)-1H-pyrrolo[2,3-b]pyridine-4,6-diamine] | 101 to 300 | 2.1 | –
17 | CCNc1cc(Nc2cc(F)c(S(=O)(=O)N3CCC(N4CCOCC4)CC3)cc2OC)nc2[nH]cc(C(F)(F)F)c12 [Example 266, N^4-ethyl-N^6-(5-fluoro-2-methoxy-4-((4-morpholinopiperidin-1-yl)sulfonyl)phenyl)-3-(trifluoromethyl)-1H-pyrrolo[2,3-b]pyridine-4,6-diamine] | 301 to 1000 | – | 301 to 1000
